In PubChem BioAssay (NCI) one finds TGI data, which are given here for 13 compounds.

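How tested: cells in 96-well plates exposed to compound for 48 hours at five concentrations. TGI is the concentration that stops growth completely.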

Some test systems named below: HCT-15 colon; HOP-92 NSCLC; HT29 colon; MDA-MB-435; NCI-H23 lung; NCI/ADR-RES ovarian; OVCAR-5 ovarian; RXF 393 renal; T-47D breast; SNB-75 CNS.
Holding throughout (assay): inhibition of tumour cell growth, NCI panel, 48 h

Consider `CC(O)c1c2c(cc3c1CC1(C3)Cc3cc4c(c(C(C)O)c3C1)CCC4)CCC2` (stereo not drawn), for which the TGI is 41.1 µM in the assay with HCT-15 colon; 31.6 µM in the assay with HOP-92 NSCLC; 28.3 µM with HT29 colon; 31.9 µM in the assay on MDA-MB-435; 40.4 µM in the assay with NCI-H23 lung; 70.4 µM in the assay with NCI/ADR-RES ovarian. For the same compound, the values for the TGI with OVCAR-5 ovarian, in the assay on RXF 393 renal and in the assay with T-47D breast were 50.2 µM, 30 µM and 53.7 µM, respectively.
As to `O/N=c1/ccn(O)c2ccccc12`, the TGI in the assay on HCT-15 colon worked out at 5.21 µM; in the assay with HOP-92 NSCLC, 8.65 µM; in the assay with HT29 colon, 4.24 µM; with MDA-MB-435 it was 17.4 µM; in the assay on NCI-H23 lung it was 8.96 µM; in the assay with NCI/ADR-RES ovarian, 4.7 µM. In addition, the TGI stood at 14.7 µM in the assay with OVCAR-5 ovarian, 1.64 µM in the assay on RXF 393 renal, 1.98 µM in the assay on SNB-75 CNS and 10.3 µM in the assay with T-47D breast.
As for `CSCCC(NCc1c(O)ccc2ccc(=O)oc12)C(=O)O` (stereo not drawn), the TGI with HCT-15 colon, in the assay on HOP-92 NSCLC, with HT29 colon, in the assay on MDA-MB-435, in the assay with NCI-H23 lung and with NCI/ADR-RES ovarian was greater than 100 µM each time. For the same compound, the TGI with OVCAR-5 ovarian, with RXF 393 renal, with SNB-75 CNS and in the assay with T-47D breast was greater than 100 µM throughout.
As to `COc1c(Cl)ccc(Cl)c1C(=O)NNC(=O)c1c(Cl)c(Cl)c(Cl)c(Cl)c1-c1nc2ccc(C(=O)c3ccccc3)cc2[nH]1`, the TGI in the assay with HCT-15 colon, with HOP-92 NSCLC, in the assay with HT29 colon, in the assay with MDA-MB-435, in the assay with NCI-H23 lung and in the assay with NCI/ADR-RES ovarian was greater than 100 µM throughout. The TGI in the assay on OVCAR-5 ovarian, in the assay with RXF 393 renal, with SNB-75 CNS and in the assay on T-47D breast was greater than 100 µM in each case.
With `Cc1c2c(c(C)n1-c1ccccc1)C(=O)N(CCSC(=N)N)C2=O`, the TGI in the assay on HCT-15 colon, with HOP-92 NSCLC, with HT29 colon, with MDA-MB-435, with NCI-H23 lung and in the assay with NCI/ADR-RES ovarian was greater than 100 µM throughout. The TGI was greater than 100 µM in the assay on OVCAR-5 ovarian, greater than 100 µM with RXF 393 renal, greater than 100 µM with SNB-75 CNS and 73.6 µM in the assay on T-47D breast.
Take `N#C/C(=C1\N=C(c2ccccc2O)Oc2ccccc21)c1ccc([N+](=O)[O-])cc1`: the TGI in the assay on HCT-15 colon, with HOP-92 NSCLC, in the assay on HT29 colon, in the assay on MDA-MB-435, with NCI-H23 lung and in the assay with NCI/ADR-RES ovarian was greater than 100 µM throughout. For the same compound, the TGI in the assay with OVCAR-5 ovarian, in the assay with RXF 393 renal, in the assay with SNB-75 CNS and in the assay on T-47D breast was greater than 100 µM in each case.
`O=C(NCCN1C(=O)CN=C(c2ccc(Cl)cc2)c2cc(Cl)ccc21)OCc1ccccc1`: the TGI with HCT-15 colon was found to be 44.6 µM; in the assay with HOP-92 NSCLC, 31.2 µM; in the assay on HT29 colon, 31.8 µM; with MDA-MB-435, 32.9 µM; in the assay with NCI-H23 lung, 33.8 µM; in the assay with NCI/ADR-RES ovarian, 35.7 µM. Further, the TGI in the assay with OVCAR-5 ovarian is 49.7 µM; in the assay on RXF 393 renal, 23.8 µM; in the assay on SNB-75 CNS, 42.2 µM; in the assay on T-47D breast, greater than 100 µM.
Regarding `CC[C@@H](CCCC[C@@H]1CC[C@H]2CC(=O)C[C@@H]12)OC`, the TGI in the assay with HCT-15 colon, in the assay on HOP-92 NSCLC, in the assay with HT29 colon, in the assay with MDA-MB-435, in the assay on NCI-H23 lung and with NCI/ADR-RES ovarian was greater than 100 µM throughout. The TGI with OVCAR-5 ovarian, with RXF 393 renal, in the assay on SNB-75 CNS and in the assay with T-47D breast was greater than 100 µM in each case.
Regarding `CC[C@@H]1CN2CCC1C[C@@H]2C(O)c1ccnc2ccc(OCCN3CCN(CCOc4ccc5nccc(C(O)[C@@H]6C[C@@H]7CCN6C[C@@H]7CC)c5c4)CC3)cc12` (stereo partly drawn), the TGI is 56.2 µM in the assay with HCT-15 colon; 22.8 µM with HOP-92 NSCLC; 30.2 µM with HT29 colon; 28 µM in the assay with MDA-MB-435; 43.7 µM in the assay with NCI-H23 lung; greater than 100 µM with NCI/ADR-RES ovarian. Moreover, the TGI in the assay on OVCAR-5 ovarian came out at 32.9 µM; with RXF 393 renal it was 34.2 µM; in the assay with T-47D breast, 42.1 µM.
Take `CC(C)C1CC=NN1C(=O)OC(C)(C)C` (stereo not drawn): the TGI with HCT-15 colon, in the assay with HOP-92 NSCLC, with HT29 colon, with MDA-MB-435, with NCI-H23 lung and with NCI/ADR-RES ovarian was greater than 100 µM each time. For the same compound, the TGI in the assay with OVCAR-5 ovarian, in the assay with RXF 393 renal, in the assay with SNB-75 CNS and in the assay with T-47D breast was greater than 100 µM each time.
As for `CN(C)CCN1C(=O)CC[C@@]2(C)C1=CC[C@@H]1[C@@H]2CC[C@@]2(C)[C@H]1CC[C@]2(C)O`, the TGI with HCT-15 colon, with HOP-92 NSCLC, in the assay with HT29 colon, in the assay with MDA-MB-435, in the assay with NCI-H23 lung and in the assay on NCI/ADR-RES ovarian was greater than 100 µM in each case. In addition, the TGI in the assay with OVCAR-5 ovarian, in the assay with RXF 393 renal, with SNB-75 CNS and in the assay with T-47D breast was greater than 100 µM in each case.
With `Cc1cn(CC2=NCCN2)c(=O)[nH]c1=O`, the TGI with HCT-15 colon, in the assay with HOP-92 NSCLC, in the assay on HT29 colon, with MDA-MB-435, in the assay on NCI-H23 lung and in the assay on NCI/ADR-RES ovarian was greater than 100 µM throughout. Besides, the TGI in the assay with OVCAR-5 ovarian, in the assay with RXF 393 renal, in the assay with SNB-75 CNS and in the assay on T-47D breast was greater than 100 µM in each case.
Consider `O=C1NCC2(CCNCC2)N1c1ccccc1`, for which the TGI in the assay on HCT-15 colon, in the assay with HOP-92 NSCLC, with HT29 colon, in the assay on MDA-MB-435, in the assay with NCI-H23 lung and in the assay with NCI/ADR-RES ovarian was greater than 100 µM in each case. Further, the TGI in the assay with OVCAR-5 ovarian, in the assay on RXF 393 renal, in the assay on SNB-75 CNS and with T-47D breast was greater than 100 µM in each case.
